The values below come from patent US10053455B2, “Diazaspiroalkaneone-substituted oxazole derivatives as spleen tyrosine kinase inhibitors” (AB SCIENCE, priority 2014, dated 2018).

Read-outs that look alike come from different tables or passages of the source.

One data set concerns the target Flt3 (Homo sapiens (Human), UniProt P36888). As to the kind of experiment: Cell-based proliferation assay on BaF3 model, Flt3. As to the method:
(§1) Cell-based proliferation and viability assay CellTiter-Bleue cell-based survival/proliferation assay (Promega G8080) was performed on BaF3 models.
(§2) A total of 1.10^4 cells/well/50 μl were seeded in a 96-wells plate. Treatment was initiated by addition of a 2× drug solution of ½ serial dilutions ranging from 0 to 10 μM. Cells were grown for 48-72 h at 37° C. and then incubated with 10 μl/well of Promega CellTiter-Bleue reagent for 4 h at 37° C. The amount of formazan dye formed was quantified by its absorbance at 450 nm using a scanning multiwell spectrophotometer (POLARstar Omega, BMG labtech, France). A blank well without cells was used as a background control for the spectrophotometer and all assays were performed in duplicates and the experiments were repeated at least twice.

The next data set addresses VEGFR1 (Homo sapiens (Human), UniProt P17948). As to the kind of experiment: HTRF kinase assay, VEGFR1. The format is biochemical. The conditions noted are these: enzymatic determination. As to the method:
(§3) Most of the kinases tested in this study were cloned, expressed and purified in the facilities of the inventors. They were expressed either as N-terminus hexahistidine-, hexahistidine-asparagine- or GST-tagged enzymes in a baculovirus or in a Colibacille expression system. Remaining enzymes (JAKs) were purchased from Millipore or Proqinase. For each enzyme, steady state kinetic parameters were determined and validated with known inhibitors.
(§4) The analysis of the effect of compounds on kinase activity was assessed with the HTRF® KinEASE assay (Cisbio International), an immuno-assay based on the quantification of the level of phosphorylation of a biotinylated peptide substrate using anti-phospho-specific antibody labeled with Europium (Eu^3+) cryptate. This assay comprises two steps: —an enzymatic step, during which the peptide substrate, the kinase, ATP, Mg^2+ and/or Mn^2+ are incubated with varying concentration of drug (from 0 to 10 μM); —a detection step, at the end of the reaction (stopped by addition of EDTA which chelates Mg^2+), the antibody anti-phospho peptide-Eu^3+ (emission 620 nm) and streptavidin XL-665 (emission 665 nm) are added to the reaction mix. […] Results are expressed in delta fluorescence (DF) unit defined as follow DF %=[(ratio−ratio blank)/(ratio blank)]*100, where ratio=(665 nm/620 nm)*10^4. […]

A further data set deals with TNFα. As to the kind of experiment: FcεRI and Kit-induced TNFα cytokine release in BMMCs. The format is cell-based, C57BL/6J mice. As to the method: Murine bone marrow mast cells (BMMCs) are obtained by flushing bone marrow cells from the femurs of C57BL/6J mice, and then cultured for 3-4 weeks in RPMI containing mouse recombinant IL-3 (30 ng/ml). Cells were sensitized overnight in IL3-depleted culture medium with 0.1-0.2 μg/ml anti-DNP-IgE (Sigma-Aldrich D8406). Cells were preincubated with inhibitors for 30 min, and then stimulated with 10 ng/ml antigen (Ag) and/or Stem Cell Factor (SCF) (30 ng/ml). The cells were incubated for 6 h. The supernatants were harvested, and the cytokine content measured using CISBIO IL6 and TNFα HTRF assay (cat#63ADKEBU043 and 6FMTNPEB respectively).

For the next data set, the target named is Btk (Homo sapiens (Human), UniProt Q06187). Nature of the data set: HTRF kinase assay, Btk. To be noted: enzymatic determination. The class given is biochemical. As to the method:
as §3, §4
Background: Time-resolved FRET reads energy transfer from a long-lived donor to a nearby acceptor.

Data set [1] can be described thus: WST-1 cell survival/proliferation assay on rat cardiomyocytes. The conditions noted are these: Rat Cardiac Myocyte. The format is cell-based. As to the method: WST-1 cell survival/proliferation assay (Roche Diagnostic ref No 1644807) was performed on both primary human adult cardiomyocytes and rat neonatal cardiac myocytes.
Human cardiomyocytes were isolated from normal human ventricle tissue of the adult heart and were able to proliferate for a number of passage. Neonatal ventricular Clonetics® Rat Cardiac Myocytes (P1-3) retained their contractile property and were electrophysiologically active in culture. 1.10^4 primary rat cells or 2-2.5 10^4 adult human cells were plated per well of a 96 wells plates. The cells were allowed to adhere to the plates for 5 days before drug treatment. Treatment was initiated by addition of a 2× drug solution of ½ serial dilutions ranging from 0 to 10 μM. Cells were grown for 48 h at 37° C. and then incubated with 10 μl/well of WST-1 reagent for 4 h at 37° C. The amount of formazan dye formed was quantified by its absorbance at 450 nm using a scanning multiwell spectrophotometer (MultiSkan MS, Thermo-LabSystems, France). A blank well without cells was used as a background control for the spectrophotometer and all assays were performed in triplicate.
A general note: Tetrazolium assays rely on reduction of a dye to a coloured formazan, in cell work by metabolically active cells.

The target of another data set is hERG (Homo sapiens (Human), UniProt Q12809). Nature of the data set: Predictor hERG Fluorescence Polarization binding assay. The conditions noted are these: 100% = E-4031.
Sequence of hERG (Q12809 whole entry): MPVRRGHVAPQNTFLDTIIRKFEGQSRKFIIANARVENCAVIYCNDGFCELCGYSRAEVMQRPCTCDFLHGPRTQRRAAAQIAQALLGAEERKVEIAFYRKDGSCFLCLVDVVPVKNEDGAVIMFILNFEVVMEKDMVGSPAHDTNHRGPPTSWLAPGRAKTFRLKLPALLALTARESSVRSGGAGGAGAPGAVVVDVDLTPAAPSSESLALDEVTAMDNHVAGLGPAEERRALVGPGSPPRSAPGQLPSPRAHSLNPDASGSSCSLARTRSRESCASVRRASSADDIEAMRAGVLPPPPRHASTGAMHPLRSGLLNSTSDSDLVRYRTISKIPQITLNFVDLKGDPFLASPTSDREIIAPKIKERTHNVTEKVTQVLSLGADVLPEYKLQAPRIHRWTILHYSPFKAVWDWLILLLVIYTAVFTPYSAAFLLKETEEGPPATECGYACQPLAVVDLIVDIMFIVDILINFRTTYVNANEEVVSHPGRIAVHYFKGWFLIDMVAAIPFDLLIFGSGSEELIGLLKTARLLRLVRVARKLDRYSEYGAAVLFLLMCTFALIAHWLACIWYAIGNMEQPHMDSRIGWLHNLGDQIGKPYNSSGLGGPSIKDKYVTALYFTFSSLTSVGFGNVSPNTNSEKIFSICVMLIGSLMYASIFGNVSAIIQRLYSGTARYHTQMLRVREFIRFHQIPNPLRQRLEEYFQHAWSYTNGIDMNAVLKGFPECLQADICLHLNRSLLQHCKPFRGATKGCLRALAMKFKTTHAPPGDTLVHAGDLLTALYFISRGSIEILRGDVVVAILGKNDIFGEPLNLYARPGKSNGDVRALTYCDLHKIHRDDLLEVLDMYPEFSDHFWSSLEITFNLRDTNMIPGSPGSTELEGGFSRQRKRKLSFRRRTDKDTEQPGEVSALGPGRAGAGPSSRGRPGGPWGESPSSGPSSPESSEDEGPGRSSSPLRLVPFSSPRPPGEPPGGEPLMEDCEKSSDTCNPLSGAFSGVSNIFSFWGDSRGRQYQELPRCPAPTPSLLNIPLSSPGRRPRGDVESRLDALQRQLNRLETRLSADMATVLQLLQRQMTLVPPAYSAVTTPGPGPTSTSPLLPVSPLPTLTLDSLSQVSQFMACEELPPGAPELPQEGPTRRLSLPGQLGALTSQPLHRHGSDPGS
Another data set has as its target TEL-SYK (Homo sapiens, UniProt P43405). As to the kind of experiment: Cell-based proliferation assay on BaF3 model, TEL-SYK. The procedure: as §1, §2
Another data set relates to human cardiomyocytes. As to the kind of experiment: Intracellular ROS in human cardiomyocytes (CM-H2DCFDA). The format is cell-based. The conditions noted are these: 10 μM, 8 hours. The procedure: 2×10^3 human cardiomyocytes (Promocell C-12810) or 4×10^4 rat neonatal cardiac myocytes (R-CM-561 Lonza) were seeded per well of a 96-well plate (black wall for fluorimetry usage (655090 Greiner Bio one)) 24 hours before drug treatment. Treatment was initiated by addition of a drug solution for a 10 μM final concentration. Doxorubicin was used at 5 μM as positive control for the induction of ROS. After 8 hours treatment with drugs, cells were loaded with 10 μM of CM-H2DCFDA (C6827 Invitrogen) for 1 hour, followed by 2 washes in PBS. CM-H2DCFDA is a membrane permeable reagent that can be enzymatically converted to dichlorodihydrofluorescein (DCF) in the presence of ROS. Fluorescent DCF was detected using a fluorescence spectrophotometer (BMG Labtech) with excitation of 485 nm and emission of 560 nm. The results were expressed as a relative percent of DCF-fluorescence in control cells.
Monitoring drug-induced increase in the production of reactive oxygen species (ROS) in cardiomyocyte may be important to predict the cardiotoxic side effects of a drug (Table 11). The production of ROS in human and rat cardiomyocytes was studied following 8 hours drug treatment at concentration of 10 μM. The results were expressed as a percent relative to the production of ROS induced by the cardiotoxic chemotherapeutic agent doxorubicin (100%).

Sequence of Btk (Q06187 whole entry, species assumed): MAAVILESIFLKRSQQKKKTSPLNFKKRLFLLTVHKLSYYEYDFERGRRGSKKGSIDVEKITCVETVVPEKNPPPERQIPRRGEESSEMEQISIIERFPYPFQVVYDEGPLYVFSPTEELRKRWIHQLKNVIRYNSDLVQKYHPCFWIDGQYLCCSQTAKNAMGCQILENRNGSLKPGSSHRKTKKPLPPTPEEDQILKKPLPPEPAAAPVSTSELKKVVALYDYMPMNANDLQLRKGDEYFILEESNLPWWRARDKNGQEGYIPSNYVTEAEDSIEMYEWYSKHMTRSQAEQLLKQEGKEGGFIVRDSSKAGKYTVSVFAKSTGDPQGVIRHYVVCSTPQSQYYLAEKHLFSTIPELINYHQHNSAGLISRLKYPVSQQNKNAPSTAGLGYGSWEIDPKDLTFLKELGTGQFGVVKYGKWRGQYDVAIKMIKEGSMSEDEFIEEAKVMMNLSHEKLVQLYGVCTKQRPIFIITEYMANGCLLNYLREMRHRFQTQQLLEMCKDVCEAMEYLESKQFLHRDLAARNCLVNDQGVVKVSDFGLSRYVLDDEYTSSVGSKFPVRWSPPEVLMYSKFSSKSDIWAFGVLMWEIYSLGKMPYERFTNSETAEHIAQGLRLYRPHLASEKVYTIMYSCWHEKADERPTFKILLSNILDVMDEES
Sequence of VEGFR1 (P17948 27-1338, species assumed): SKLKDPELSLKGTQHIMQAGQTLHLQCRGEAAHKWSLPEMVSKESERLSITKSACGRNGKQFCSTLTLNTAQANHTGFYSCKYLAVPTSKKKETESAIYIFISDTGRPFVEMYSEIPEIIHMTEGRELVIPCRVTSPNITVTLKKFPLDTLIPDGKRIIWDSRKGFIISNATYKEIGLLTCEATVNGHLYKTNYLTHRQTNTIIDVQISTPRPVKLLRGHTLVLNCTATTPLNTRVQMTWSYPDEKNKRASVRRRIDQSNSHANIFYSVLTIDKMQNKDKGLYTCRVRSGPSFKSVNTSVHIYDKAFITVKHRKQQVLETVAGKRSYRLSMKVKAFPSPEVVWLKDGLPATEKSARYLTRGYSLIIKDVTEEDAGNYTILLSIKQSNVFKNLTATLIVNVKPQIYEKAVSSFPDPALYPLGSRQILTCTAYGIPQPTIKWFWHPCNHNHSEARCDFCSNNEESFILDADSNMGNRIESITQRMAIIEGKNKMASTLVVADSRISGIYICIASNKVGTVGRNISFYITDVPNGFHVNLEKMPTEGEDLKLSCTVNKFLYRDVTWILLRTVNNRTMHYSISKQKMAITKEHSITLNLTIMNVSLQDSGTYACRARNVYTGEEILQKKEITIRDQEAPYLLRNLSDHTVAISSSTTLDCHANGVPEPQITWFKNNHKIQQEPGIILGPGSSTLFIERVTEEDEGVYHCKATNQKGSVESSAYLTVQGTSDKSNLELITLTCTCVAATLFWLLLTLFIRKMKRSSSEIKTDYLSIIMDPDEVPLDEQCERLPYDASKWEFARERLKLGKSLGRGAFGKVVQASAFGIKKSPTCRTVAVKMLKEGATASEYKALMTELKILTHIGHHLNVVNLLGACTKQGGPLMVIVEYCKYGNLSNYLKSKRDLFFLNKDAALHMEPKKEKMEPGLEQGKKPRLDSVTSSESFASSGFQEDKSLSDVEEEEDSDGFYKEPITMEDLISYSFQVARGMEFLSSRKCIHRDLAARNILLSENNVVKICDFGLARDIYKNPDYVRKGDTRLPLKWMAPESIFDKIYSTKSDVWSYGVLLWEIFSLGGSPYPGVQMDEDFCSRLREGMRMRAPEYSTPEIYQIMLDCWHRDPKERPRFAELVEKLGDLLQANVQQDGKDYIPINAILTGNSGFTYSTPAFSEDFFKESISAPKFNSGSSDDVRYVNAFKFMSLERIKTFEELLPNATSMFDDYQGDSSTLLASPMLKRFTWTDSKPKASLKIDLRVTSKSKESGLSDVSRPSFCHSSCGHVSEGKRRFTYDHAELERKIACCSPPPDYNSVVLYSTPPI
Sequence of Flt3 (P36888 27-993, species assumed): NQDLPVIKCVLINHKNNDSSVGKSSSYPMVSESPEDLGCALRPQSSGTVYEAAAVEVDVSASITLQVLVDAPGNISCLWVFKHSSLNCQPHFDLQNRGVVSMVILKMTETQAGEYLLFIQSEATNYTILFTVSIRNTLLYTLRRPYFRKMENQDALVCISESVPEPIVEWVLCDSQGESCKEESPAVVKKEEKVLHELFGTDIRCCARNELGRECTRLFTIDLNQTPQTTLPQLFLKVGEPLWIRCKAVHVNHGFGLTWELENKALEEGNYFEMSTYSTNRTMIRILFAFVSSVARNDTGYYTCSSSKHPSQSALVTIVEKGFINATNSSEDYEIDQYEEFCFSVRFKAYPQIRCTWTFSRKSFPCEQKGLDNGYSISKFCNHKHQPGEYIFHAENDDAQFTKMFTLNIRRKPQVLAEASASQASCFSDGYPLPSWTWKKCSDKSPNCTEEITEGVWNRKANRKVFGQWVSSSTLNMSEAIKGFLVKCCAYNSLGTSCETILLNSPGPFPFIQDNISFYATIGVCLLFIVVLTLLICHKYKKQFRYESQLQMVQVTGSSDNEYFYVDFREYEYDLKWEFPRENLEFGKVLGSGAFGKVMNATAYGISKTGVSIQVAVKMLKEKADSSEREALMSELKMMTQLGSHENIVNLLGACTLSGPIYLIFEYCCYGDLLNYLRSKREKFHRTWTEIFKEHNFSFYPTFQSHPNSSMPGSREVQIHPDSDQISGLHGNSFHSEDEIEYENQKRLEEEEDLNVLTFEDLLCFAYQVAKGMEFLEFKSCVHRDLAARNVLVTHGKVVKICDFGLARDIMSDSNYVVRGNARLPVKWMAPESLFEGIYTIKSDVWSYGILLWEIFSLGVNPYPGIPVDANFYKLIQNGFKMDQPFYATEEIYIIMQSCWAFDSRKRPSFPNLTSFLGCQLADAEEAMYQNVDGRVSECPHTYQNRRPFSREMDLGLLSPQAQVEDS
Description for hERG: The activity of the test compounds on the hERG potassium channel was evaluated using a binding assay provided by Invitrogen (Predictor hERG Fluorescence Polarization assay Kit PV5365). The test was performed at a single concentration of 3 μM of drug. […] The data are expressed as a percentage of hERG inhibition, 100% corresponding to the inhibition obtained with E-4031 and 0% with the solvent DMSO (negative control).

As usually defined, the IC50 is the concentration at which inhibition is half-maximal. One may read the inhibition as the drop in the measured response relative to a control, in per cent. As for `Cc1ccnc(Nc2cccc(-c3cnc(N4CCNC(=O)C45CC5)o3)c2)n1` [Compound 001, 4-{5-[3-(4-Methyl-pyrimidin-2-ylamino)-phenyl]-oxazol-2-yl}-4,7-diaza-spiro[2.5]octan-8-one], the IC50 on Flt3 was 6 µM; against VEGFR1 it was 7.5 µM; in the data set with TNFα (Mus musculus, BMMC, Ag + SCF stimulated BMMCs), ~0.05 µM; against Btk it was 20 µM; on TEL-SYK (read-out: Kinase activity profile IC50 Tel-Syk), 0.272 µM; at TEL-SYK (read-out: TEL-SYK IC50) it was 0.27 µM. For the same compound, the “TNFα Cytokine Release (% relative to control Ag + SCF)” value was determined as 95% in the data set on TNFα (Ag + SCF + 0.01 μM of compound), 32% with TNFα (Ag + SCF + 0.1 μM of compound) and 2% in the data set on TNFα (Ag + SCF + 1 μM of compound). Also, the “TNFα Cytokine Release (Relative Fluorescence Units)” value in the data set with TNFα (Ag + SCF + 0.01 μM of compound) was 468 Relative Fluorescence Units; with TNFα (Ag + SCF + 0.1 μM of compound), 158 Relative Fluorescence Units; with TNFα (Ag + SCF + 1 μM of compound) it was 9.5 Relative Fluorescence Units. Further, the IC50 at 48 h in data set [1] (neonatal ventricular rat cardiac myocytes (Clonetics, P1-3), 48 h, read-out: Drug-induced cytotoxicity IC50, Rat-CM) was 10 µM. The viability change vs untreated control at 48 h, 1 µM in data set [1] (rat neonatal cardiac myocytes, 1 μM) is -2%. Moreover, the inhibition at 3 µM at hERG was 0%. Moreover, in the data set with human cardiomyocytes, the “ROS production, activity relative to doxorubicine (100%), Hu-CM” value was 0%.
